Results as given in patent US12612412B2, “Antiviral heterocyclic compounds” (Enanta Pharmaceuticals, Inc., priority 2021, dated 2026).
pEC50: −log10 of the molar value.

These molecules were tested on genotype A, "Long" strain RSV (assay: RSV-A assay (CPE protection in Hep-2 cells, ATPlite readout)). Settings: human respiratory syncytial virus, RSV-A Long strain, MOI 0.1, CPE protection, read-out: Human RSV-A (“Long”) EC50.
Type: cell-based, Human respiratory syncytial virus (HRSV)
Text: Hep-2 cells, (originally derived from tumors grown in irradiated-cortisonised weanling rats that had been injected with epidermoid carcinoma tissue from the larynx of a person, but later found to be indistinguishable from HeLa cells by PCR DNA analysis), were used for the culturing of genotype A, “Long” strain RSV. Flasks were inoculated with RSV and viral stocks were collected once cytopathic effect (CPE) was greater than 90%. Viral stocks in 25% sucrose media were snap frozen using liquid nitrogen to increase viral stability. Viral stock titers were quantified by tissue culture infectious dose 50% (TCID50) using 8,000 cells per well and 3-fold viral dilutions across a 96-well plate, cultured for 4 days. Viral stock titers were also quantified by a plaque forming unit assay, as described elsewhere.
Following extensive parameter testing, the final assay is run as follows: Hep-2 cells are seeded into the inner 60 wells of a 96-well plate at 8,000 cells per well in a volume of 50 μL using Growth Media (DMEM without phenol red, 1% L-Glut, 1% Penn/Strep, 1% nonessential amino acids, 10% heat-inactivated FBS). 2-fold serial dilutions of control and test compounds are added to the wells in duplicate in a total volume of 25 μL. Viral stock is then added to the wells at a multiplicity of infection (MOI) of 0.1 in a volume of 25 μL, bringing the total volume of each well to 100 μL. The MOI is calculated using the PFU/mL, or TCID50 if unavailable. Each 96-well plate has a control column of 6 wells with cells and virus but no compound (negative control, max CPE), a column with cells but no compound or virus (positive control, minimum CPE), and a column with no cells or virus or compound (background plate/reagent control). The control wells with cells but no virus are given an additional 25 μL of growth media containing an equal quantity of sucrose as those wells receiving the viral stock in order to keep consistent in media and volume conditions. The outer wells of the plate are filled with 125 μL of moat media (DMEM, 1% Penn/Strep) to act as a thermal and evaporative moat around the test wells. Following a 5-day incubation period, the plates are read using ATPlite (50 uL added per well), which quantifies the amount of ATP (a measure of cell health) present in each well. Assay plates are read using the Envision luminometer. […] EC50 ranges are as follows: A<0.2 μM; B>0.2 μM.
`COc1cc(C(=O)NC[C@@](O)(c2cc3c(c(-c4ccc(F)cc4F)n2)OC[C@]3(C)C(N)=O)C(F)(F)F)cc2cn(C3CC3)nc12` [Example 900] showed a pEC50 of over 6.70. `CNC(=O)[C@@]1(C)COc2c1cc([C@@](O)(CNC(=O)c1cc(OC)c3nn(C4CC4)cc3c1)C1CC1)nc2-c1ccc(F)cc1` [Example 1290] showed a pEC50 of over 6.70. In the case of `Cc1cnc2c(OC(F)F)cc(C(=O)NC[C@](O)(c3cc4c(c(-c5ccc(Cl)c(F)c5F)n3)OC[C@]4(C)C(N)=O)C3CC3)cc2c1` [Example 1214], the pEC50 was over 6.70. `COc1cc(C(=O)NC[C@](O)(c2cc3c(c(-c4ccc(F)cc4F)n2)OC[C@]3(C)C(N)=O)C2CC2)cc2cn(C3CC3)nc12` [Example 1277] was tested, and the pEC50 was over 6.70. `COc1cc(C(=O)NC[C@@](O)(c2cc3c(c(-c4ccc5c(c4)OCO5)n2)OC[C@]3(C)C(N)=O)C(F)(F)F)cc2cn(C3CC3)nc12` [Example 907] gave a pEC50 of under 6.70. For `COc1cc(C(=O)NC[C@](O)(c2cc3c(c(-c4ccc(F)cc4)n2)OC[C@]3(C)C(N)=O)C2CC2)cc2cc(C)nnc12` [Example 1108], the pEC50 was over 6.70. With `COc1cc(C(=O)NC[C@@](O)(c2cc3c(c(-c4ccccc4F)n2)OC[C@]3(C)C(N)=O)C(F)(F)F)cc2cn(C3CC3)nc12` [Example 910] the pEC50 was under 6.70. `Cc1cnc2c(OC(F)F)cc(C(=O)NC[C@](O)(c3cc4c(c(-c5cc(F)c(F)c(Cl)c5)n3)OC[C@]4(C)C(N)=O)C3CC3)cc2c1` [Example 1213] was tested, and the pEC50 was over 6.70. With `COc1cc(C(=O)NC[C@@](O)(c2cc3c(c(-c4ccc5c(c4)OC(F)(F)O5)n2)OC[C@]3(C)C(N)=O)C(F)(F)F)cc2cn(C3CC3)nc12` [Example 894] the pEC50 was under 6.70. For `Cc1cnc2c(OC(F)F)cc(C(=O)NC[C@](O)(c3cc4c(c(-c5ccc(F)cc5Cl)n3)OC[C@]4(C)C(N)=O)C3CC3)cc2c1` [Example 1215], the pEC50 was over 6.70. Work on `Cc1cc2cc(C(=O)NC[C@](O)(c3cc4c(c(-c5ccc(F)cc5)n3)OC[C@]4(C)C(N)=O)C(F)(F)F)cc(OC3CC3)c2nc1Cl` [Example 1075] yielded a pEC50 of over 6.70. `COc1cc(C(=O)NC[C@](O)(c2nc(-c3ccc(F)c(Cl)c3F)c3c(c2Cl)[C@@](C)(C(N)=O)CO3)C2CC2)cc2cn(C3CC3)nc12` [Example 1217] was tested, and the pEC50 was under 6.70. Molecule `Cc1cc2cc(C(=O)NC[C@](O)(c3cc4c(c(-c5ccc(F)c(Cl)c5)n3)OC[C@]4(C)C(N)=O)C(F)(F)F)cc(OC3CC3)c2nc1Cl` [Example 1076] has a pEC50 of over 6.70. In the case of `Cc1cnc2c(OC(F)F)cc(C(=O)NC[C@](O)(c3cc4c(c(-c5cc(Cl)ccc5F)n3)OC[C@]4(C)C(N)=O)C3CC3)cc2c1` [Example 1200], the pEC50 was over 6.70. With `COc1cc(C(=O)NC[C@](O)(c2cc3c(c(-c4ccc5c(c4)OC(F)(F)O5)n2)OC[C@]3(C)C(N)=O)C2CC2)cc2cc(C(F)F)nnc12` [Example 1210] the pEC50 was over 6.70. `COc1cc(C(=O)NC[C@](O)(c2cc3c(c(-c4cc(Cl)c(F)cc4F)n2)OC[C@]3(C)C(N)=O)C2CC2)cc2sc(C3CC3)nc12` [Example 1132] was tested, and the pEC50 was over 6.70. For `C[C@]1(C(N)=O)COc2c1cc([C@@](O)(CNC(=O)c1cc(OC3CC3)c3nn(C(F)F)cc3c1)C1CC1)nc2-c1cc(Br)c(F)cc1F` [Example 1086], the pEC50 was over 6.70. Molecule `COc1cc(C(=O)NC[C@](O)(c2cc3c(c(-c4ccc(F)cc4)n2)OC[C@]3(C)C(N)=O)C(F)(F)F)cn2nc(N)cc12` [Example 881] has a pEC50 of over 6.70. `COc1cc(C(=O)NC[C@](O)(c2cc3c(c(-c4cc(F)c(F)c(F)c4F)n2)OC[C@]3(C)C(N)=O)C2CC2)cc2cn(C3CC3)nc12` [Example 1278] gave a pEC50 of over 6.70. Work on `COc1cc(C(=O)NC[C@](O)(c2cc3c(c(-c4ccc(F)c(Cl)c4F)n2)OC[C@]3(C)C(N)=O)C2(F)CC2)cc2cc(Br)cnc12` [Example 1114] yielded a pEC50 of over 6.70.

Same assay, conditions: human respiratory syncytial virus, genotype A “Long” strain RSV, MOI 0.1, CPE protection, read-out: Human RSV-A (“Long”)
`C[C@]1(C(N)=O)COc2c1cc([C@@](O)(CNC(=O)c1ccc3[nH]nnc3c1)C(F)(F)F)nc2-c1ccc(F)cc1` [Example 107] showed a pEC50 of under 6.70. In the case of `C[C@]1(C(N)=O)COc2c1cc([C@@](O)(CNC(=O)c1cnn(-c3ccc(C(F)(F)F)cc3)c1)C(F)(F)F)nc2-c1ccc(F)cc1` [Example 455], the pEC50 was under 6.70. For `Cc1nn(-c2ccccc2)cc1C(=O)NC[C@](O)(c1cc2c(c(-c3ccc(F)cc3)n1)OC[C@]2(C)C(N)=O)C(F)(F)F` [Example 452], the pEC50 was over 6.70. Work on `C[C@]1(C(N)=O)COc2c1cc([C@@](O)(CNC(=O)c1c[nH]c3cccnc13)C(F)(F)F)nc2-c1ccc(F)cc1` [Example 383] yielded a pEC50 of under 6.70. Molecule `COc1ccccc1-c1nc(C(=O)NC[C@](O)(c2cc3c(c(-c4ccc(F)cc4)n2)OC[C@]3(C)C(N)=O)C(F)(F)F)c[nH]1` [Example 214] has a pEC50 of under 6.70. `COc1cc(C(=O)NC[C@](O)(c2cc3c(c(-c4ccc(F)cc4)n2)OC[C@]3(CF)C(N)=O)C(F)(F)F)cn2cc(C3CC3)nc12` [Example 292] gave a pEC50 of over 6.70. In the case of `C[C@]1(C(N)=O)COc2c1cc([C@@](O)(CNC(=O)c1ccc3[nH]ncc3n1)C(F)(F)F)nc2-c1ccc(F)cc1` [Example 403], the pEC50 was under 6.70. In the case of `COc1cc(C(=O)NC[C@](O)(c2cc3c(c(-c4ccc(F)cc4)n2)OC[C@@]3(C(N)=O)C2CC2)C(F)(F)F)cn2cc(C3CC3)nc12` [Example 272], the pEC50 was over 6.70. `COc1cc(C(=O)NC[C@](O)(c2cc3c(c(-c4ccc(F)cc4)n2)OC[C@]3(C(N)=O)C2CC2)C(F)(F)F)cc2cccnc12` [Example 269] was tested, and the pEC50 was under 6.70. For `C[C@]1(C(N)=O)COc2c1cc([C@@](O)(CNC(=O)c1csc3ccccc13)C(F)(F)F)nc2-c1ccc(F)cc1` [Example 376], the pEC50 was under 6.70. For `Cc1nc(C2CC2)sc1C(=O)NC[C@](O)(c1cc2c(c(-c3ccc(F)cc3)n1)OC[C@]2(C)C(N)=O)C(F)(F)F` [Example 462], the pEC50 was over 6.70. With `C[C@]1(C(N)=O)COc2c1cc([C@@](O)(CNC(=O)c1ccco1)C(F)(F)F)nc2-c1ccc(F)cc1` [Example 404] the pEC50 was under 6.70. With `COc1ncccc1C(=O)NC[C@](O)(c1cc2c(c(-c3ccc(F)cc3)n1)OC[C@]2(C)C(N)=O)C(F)(F)F` [Example 428] the pEC50 was under 6.70. Molecule `COc1cc(C(=O)NC[C@](O)(c2cc3c(c(-c4ccc(F)cc4)n2)OC[C@]3(C)C(N)=O)C(F)(F)F)cc2cn(CC(F)(F)F)nc12` [Example 99] has a pEC50 of over 6.70. With `CC[C@@]1(C(N)=O)COc2c1cc([C@@](O)(CNC(=O)c1cc(OC3CC3)c3ncccc3c1)C(F)(F)F)nc2-c1ccc(F)cc1` [Example 244] the pEC50 was under 6.70. In the case of `Cc1ccn2c(C(=O)NC[C@](O)(c3cc4c(c(-c5ccc(F)cc5)n3)OC[C@]4(C)C(N)=O)C(F)(F)F)c(C)nc2c1` [Example 361], the pEC50 was under 6.70. In the case of `C[C@]1(C(N)=O)COc2c1cc([C@@](O)(CNC(=O)c1cc(Cl)c3nnc(C(F)(F)F)cc3c1)C(F)(F)F)nc2-c1ccc(F)cc1` [Example 98], the pEC50 was over 6.70. `Cc1cccc2nc(C(=O)NC[C@](O)(c3cc4c(c(-c5ccc(F)cc5)n3)OC[C@]4(C)C(N)=O)C(F)(F)F)cn12` [Example 807] gave a pEC50 of under 6.70. With `COc1cc(C(=O)NC[C@](O)(c2cc3c(c(-c4ccc(F)cc4)n2)OC[C@@]3(CF)C(N)=O)C(F)(F)F)cn2cc(C3CC3)nc12` [Example 291] the pEC50 was under 6.70. For `Cc1cnc2c(NC(=O)OC3CC3)cc(C(=O)NC[C@](O)(c3cc4c(c(-c5ccc(F)cc5)n3)OC[C@]4(C)C(N)=O)C(F)(F)F)cc2c1` [Example 216], the pEC50 was over 6.70. Molecule `CC[C@@]1(C(N)=O)COc2c1cc([C@@](O)(CNC(=O)c1ccc(OC[C@@H](C)O)c(OC3CC3)c1)C(F)(F)F)nc2-c1ccc(F)cc1` [Example 251] has a pEC50 of under 6.70. Work on `COc1cc(C(=O)NC[C@](O)(c2cc3c(c(-c4ccc(F)cc4)n2)OC[C@]3(C)C(N)=O)C(F)(F)F)ccc1OC[C@@H](O)C(F)(F)F` [Example 131] yielded a pEC50 of over 6.70. `C[C@]1(C(N)=O)COc2c1cc([C@@](O)(CNC(=O)c1ccn3nc(C4CC4)cc3c1)C1CC1)nc2-c1ccc(F)c(Cl)c1` [Example 492] showed a pEC50 of over 6.70. `COc1cccc2oc(C(=O)NC[C@](O)(c3cc4c(c(-c5ccc(F)cc5)n3)OC[C@]4(C)C(N)=O)C(F)(F)F)cc12` [Example 430] was tested, and the pEC50 was under 6.70. `C[C@]1(C(N)=O)COc2c1cc([C@@](O)(CNC(=O)c1cc3ccccc3s1)C(F)(F)F)nc2-c1ccc(F)cc1` [Example 368] gave a pEC50 of under 6.70. `Cc1cc2[nH]ncc2cc1C(=O)NC[C@](O)(c1cc2c(c(-c3ccc(F)cc3)n1)OC[C@]2(C)C(N)=O)C(F)(F)F` [Example 127] gave a pEC50 of under 6.70. With `C[C@]1(C(N)=O)COc2c1cc([C@@](O)(CNC(=O)c1ccc3nc(NCCO)sc3c1)C(F)(F)F)nc2-c1ccc(F)cc1` [Example 162] the pEC50 was under 6.70. `C[C@]1(C(N)=O)COc2c1cc([C@@](O)(CNC(=O)c1cn3cc(F)ccc3n1)C(F)(F)F)nc2-c1ccc(F)cc1` [Example 809] showed a pEC50 of under 6.70.
